What was measured:
Assay type in all cases: functional, cell-based
[1] = biological target: T1, Solute carrier family 22 member 19 (Mus musculus) (UniProt Q8VCA0); test: TP_TRANSPORTER: inhibition of (Ochratoxin A: 0.5uM) of Estrone-3-sulfate at a concentration of 100uM in Oat5-expressing oocytes; parameters: scale not given: the % may be the effect or the level left; conditions: Xenopus laevis, Oocyte
T1 sequence (whole entry): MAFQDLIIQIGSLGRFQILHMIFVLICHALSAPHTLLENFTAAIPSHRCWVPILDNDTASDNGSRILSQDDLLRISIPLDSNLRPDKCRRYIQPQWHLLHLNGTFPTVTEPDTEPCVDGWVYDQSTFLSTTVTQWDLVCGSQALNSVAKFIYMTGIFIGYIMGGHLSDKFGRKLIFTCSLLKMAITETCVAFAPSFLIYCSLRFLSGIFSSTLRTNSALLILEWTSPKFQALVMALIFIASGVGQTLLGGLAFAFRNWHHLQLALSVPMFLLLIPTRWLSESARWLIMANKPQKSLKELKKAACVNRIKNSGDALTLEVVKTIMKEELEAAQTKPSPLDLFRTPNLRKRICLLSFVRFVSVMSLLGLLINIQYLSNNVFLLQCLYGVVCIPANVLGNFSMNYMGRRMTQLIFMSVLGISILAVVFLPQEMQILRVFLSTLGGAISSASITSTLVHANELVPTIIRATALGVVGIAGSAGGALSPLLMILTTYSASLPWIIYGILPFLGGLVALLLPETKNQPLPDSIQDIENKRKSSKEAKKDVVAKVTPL

[2] = biological target: T1, Solute carrier family 22 member 19 (Mus musculus); test: TP_TRANSPORTER: inhibition of (Ochratoxin A: 0.5uM) of Probenecid at a concentration of 1000uM in Oat5-expressing Xenopus oocytes; parameters: scale not given: the % may be the effect or the level left; conditions: Xenopus laevis, Oocyte
[3] = biological target: T1, Solute carrier family 22 member 19 (Mus musculus); test: TP_TRANSPORTER: inhibition of (Ochratoxin A: 0.5uM) of 2,4-dichlorophenoxyacetic acid at a concentration of 100uM in Oat5-expressing oocytes; parameters: scale not given: the % may be the effect or the level left; conditions: Xenopus laevis, Oocyte
[4] = substrate: C[C@@H]1Cc2c(Cl)cc(C(=O)N[C@@H](Cc3ccccc3)C(=O)O)c(O)c2C(=O)O1; test: TP_TRANSPORTER: uptake in Oat5-expressing oocytes; conditions: Xenopus laevis; Oocyte

For `C[C@]12CC[C@@H]3c4ccc(OS(=O)(=O)O)cc4CC[C@H]3[C@@H]1CCC2=O`, the Activity [1] was 5%.

Molecule `CCCN(CCC)S(=O)(=O)c1ccc(C(=O)O)cc1` has an Activity [2] of 25%.

With `O=C(O)COc1ccc(Cl)cc1Cl` the Activity [3] was 25%.

B1: Solute carrier family 22 member 19 (Mus musculus), Q8VCA0 (protein)
chain: T1 sequence (whole entry)
Molecule B1 has a Km [4] of 2 µM.

Reference: ChEMBL document CHEMBL2074357, “Identification and functional assessment of the novel murine organic anion transporter Oat5 (Slc22a19) expressed in kidney” (Am J Physiol Renal Physiol, 2004)
